{
  "source": "ChEMBL document CHEMBL1201862",
  "about": "“PubChem BioAssay data set” (2004)",
  "key": {"Nonstructural protein 1": {"biological_target": "Nonstructural protein 1 (Influenza A virus, UniProt Q194T2)", "sequence (Q194T2 whole entry)": "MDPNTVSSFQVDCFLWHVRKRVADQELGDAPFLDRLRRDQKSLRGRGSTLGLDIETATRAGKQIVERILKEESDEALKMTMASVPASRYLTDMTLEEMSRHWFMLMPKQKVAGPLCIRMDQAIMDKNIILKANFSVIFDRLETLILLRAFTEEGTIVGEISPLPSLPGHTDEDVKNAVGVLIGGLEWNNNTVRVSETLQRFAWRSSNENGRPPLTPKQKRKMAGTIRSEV", "type": "functional, Influenza A virus (A/California/07/2009(H1N1))"}, "[1]": {"biological_target": "T1, Matrix metalloproteinase-14 (Homo sapiens, UniProt P50281)", "assay": "Dose Response confirmation of uHTS hits for a small molecule inhibitors of MT1-MMP activation in a fluorescence assay set 1.", "type": "functional"}, "[2]": {"biological_target": "COUP transcription factor 2 (Homo sapiens, UniProt P24468)", "sequence (P24468 whole entry)": "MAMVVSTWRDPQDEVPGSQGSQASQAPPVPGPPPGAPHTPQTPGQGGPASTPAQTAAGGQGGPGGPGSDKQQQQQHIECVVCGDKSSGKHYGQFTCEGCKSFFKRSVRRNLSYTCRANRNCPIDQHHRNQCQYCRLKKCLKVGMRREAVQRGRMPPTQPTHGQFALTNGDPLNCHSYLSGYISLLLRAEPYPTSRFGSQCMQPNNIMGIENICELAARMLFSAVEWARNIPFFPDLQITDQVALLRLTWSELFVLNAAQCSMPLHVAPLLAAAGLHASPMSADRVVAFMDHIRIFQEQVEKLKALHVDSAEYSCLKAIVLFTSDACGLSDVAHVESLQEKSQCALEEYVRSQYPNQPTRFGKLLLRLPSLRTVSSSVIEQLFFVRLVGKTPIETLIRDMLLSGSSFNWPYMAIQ", "assay": "Luminescence-based cell-based high throughput dose response assay to identify inhibitors of COUP-TFII (NR2F2).", "type": "functional"}, "[3]": {"assay": "non-specific 3'UTR reporter inhibition in Clone20-Shn3RL – cell-based, Renilla luciferase, cherry-picked, counter-screen for Shn3 inhibitor project, dose response (AID 624133)", "type": "functional"}, "[4]": {"assay": "loss of viability in HepG2 cells – cell-based, CellTiter-Glo, cherry-picked, cytotoxicity control for Shn3 inhibitor project, dose response (AID 624134)", "type": "functional"}, "Protein Wnt-3a": {"biological_target": "Protein Wnt-3a (Mus musculus, UniProt P27467)", "sequence (P27467 whole entry)": "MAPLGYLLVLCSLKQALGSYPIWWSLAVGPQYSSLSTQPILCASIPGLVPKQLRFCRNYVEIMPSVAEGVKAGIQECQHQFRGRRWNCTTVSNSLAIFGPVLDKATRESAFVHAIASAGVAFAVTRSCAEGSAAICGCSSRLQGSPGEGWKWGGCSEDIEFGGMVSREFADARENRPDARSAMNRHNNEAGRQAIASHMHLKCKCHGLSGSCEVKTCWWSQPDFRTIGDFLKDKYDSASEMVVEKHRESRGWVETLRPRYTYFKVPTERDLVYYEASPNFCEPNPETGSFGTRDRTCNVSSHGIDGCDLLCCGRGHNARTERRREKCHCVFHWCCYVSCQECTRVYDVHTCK", "assay": "antagonism of Wnt3a pathway luciferase reporter – Wnt-LIGHT cells, luminescence, selectivity assay for Gli-SUFU antagonist project, dose response (AID 651570);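 further: Wnt-LIGHT reporter cells stimulated with conditioned medium from Wnt3a-producing cells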", "type": "functional", "settings": "read-out: IC50_Mean"}, "[5]": {"assay": "reduction of Shn3 3'UTR-driven luciferase in osteoblasts – cell-based, Clone20 osteoblasts, firefly luciferase, cherry-picked, dose response (AID 624132)", "type": "functional"}, "INS1": {"tested_on": "INS1", "assay": "INS-1E survival protection against cytokine death – cell-based, luminescence, retest, dose response (AID 449756);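 further: cell death triggered by IL-1 beta plus TNF-alpha plus IFN-gamma mixture; protective hits raise ATP signal compared with cytokine alone wells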", "type": "functional", "settings": "Rattus norvegicus"}, "[6]": {"assay": "Luminescence Cell-Based Dose Response HTS to Identify Activators of Luciferase Translation or Activity in H4 […] Cells. [Related pubchem assays: 1829 (Project Summary), 1814 (Primary HTS)]", "type": "functional"}, "[7]": {"biological_target": "Peroxisome proliferator-activated receptor gamma/Nuclear receptor corepressor 2 (Homo sapiens, UniProt P37231+Q9Y618)", "assay": "Counterscreen for NR2E3 inverse agonists: TR-FRET-based biochemical high throughput dose response assay to identify inverse agonists of the interaction between peroxisome proliferator-activated receptor gamma (PPARg) and nuclear receptor co-repressor 2 (NCOR2).", "type": "functional"}, "[8]": {"biological_target": "Fructose-bisphosphate aldolase (Mycobacterium tuberculosis, UniProt P9WQA3)", "sequence (P9WQA3 whole entry)": "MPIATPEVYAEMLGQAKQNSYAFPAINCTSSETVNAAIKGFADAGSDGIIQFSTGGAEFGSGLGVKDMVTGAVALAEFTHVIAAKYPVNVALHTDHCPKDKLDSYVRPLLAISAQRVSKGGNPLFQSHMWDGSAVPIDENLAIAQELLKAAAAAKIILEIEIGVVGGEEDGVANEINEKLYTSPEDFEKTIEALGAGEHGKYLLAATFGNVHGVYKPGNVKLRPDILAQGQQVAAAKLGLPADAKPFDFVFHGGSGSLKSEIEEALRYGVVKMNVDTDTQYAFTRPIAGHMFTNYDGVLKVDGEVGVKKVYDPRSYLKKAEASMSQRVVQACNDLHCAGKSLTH", "assay": "Fluorescence-based biochemical high throughput dose response assay for inhibitors of the fructose-bisphosphate aldolase (FBA) of M. tuberculosis.", "type": "functional"}, "[9]": {"assay": "Luminescence Cell-Based Dose Response to Identify Activators of Luciferase Translation or Activity in H4-C Neuroglioblastoma Cells. [Related pubchem assays: 1829 (Project Summary), 1814 (Primary HTS)]", "type": "functional"}, "[10]": {"assay": "Luminescence Cell-Based Dose Response to Identify Activators of 5'UTR Stem-Loop Driven Prion Protein mRNA Translation in H4-C Neuroglioblastoma Cells. [Related pubchem assays: 1829 (Project Summary), 1814 (Primary HTS)]", "type": "functional"}, "[11]": {"assay": "Luminescence Cell-Based Dose Confirmation to Identify Activators of 5'UTR Stem-Loop Driven Alpha-Synuclein mRNA Translation in H4 Neuroglioblastoma Cells. [Related pubchem assays: 1829 (Project Summary), 1814 (Primary HTS)]", "type": "functional"}, "[12]": {"biological_target": "Photoreceptor-specific nuclear receptor (Homo sapiens, UniProt Q9Y5X4)", "sequence (Q9Y5X4 whole entry)": "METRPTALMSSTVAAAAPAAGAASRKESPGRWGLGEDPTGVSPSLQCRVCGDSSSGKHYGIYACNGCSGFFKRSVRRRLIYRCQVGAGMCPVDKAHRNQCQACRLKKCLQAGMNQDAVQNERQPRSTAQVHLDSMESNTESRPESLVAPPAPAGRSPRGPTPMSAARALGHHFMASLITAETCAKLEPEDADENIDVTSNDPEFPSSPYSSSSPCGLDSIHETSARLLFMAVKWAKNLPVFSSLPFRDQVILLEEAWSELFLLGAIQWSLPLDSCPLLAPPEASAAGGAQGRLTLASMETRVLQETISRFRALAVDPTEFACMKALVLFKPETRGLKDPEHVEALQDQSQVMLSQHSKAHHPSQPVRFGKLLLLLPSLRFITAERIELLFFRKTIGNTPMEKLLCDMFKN", "assay": "ligands suppressing NR2E3 nuclear receptor activity – biochemical, TR-FRET, dose response (AID 463256)", "type": "functional"}, "H4": {"tested_on": "H4", "assay": "Luminescence Cell-Based Dose Response HTS to Identify Activators of 5'UTR Stem-Loop Driven Prion Protein mRNA Translation in H4 Neuroglioblastoma Cells. [Related pubchem assays: 1829 (Project Summary), 1814 (Primary HTS)]", "type": "functional", "settings": "Homo sapiens"}, "Kallikrein-7": {"biological_target": "Kallikrein-7 (Homo sapiens, UniProt P49862)", "sequence (P49862 whole entry)": "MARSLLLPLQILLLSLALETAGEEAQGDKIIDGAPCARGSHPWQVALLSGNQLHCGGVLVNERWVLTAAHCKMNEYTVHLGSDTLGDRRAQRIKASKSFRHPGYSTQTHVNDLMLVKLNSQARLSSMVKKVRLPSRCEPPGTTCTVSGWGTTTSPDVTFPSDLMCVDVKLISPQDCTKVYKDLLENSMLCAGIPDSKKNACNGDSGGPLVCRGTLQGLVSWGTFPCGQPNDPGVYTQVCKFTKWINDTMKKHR", "assay": "Fluorescence Intensity-based biochemical primary high throughput dose response assay to identify activators of kallikrein-7 (K7) zymogen."}, "[13]": {"assay": "optical artefact potency, substrate without enzyme – biochemical, fluorescence intensity, triplicate, artefact control for kallikrein-7 zymogen activator project, dose response (AID 720493)"}, "[14]": {"biological_target": "Endoplasmic reticulum aminopeptidase 1 (Homo sapiens, UniProt Q9NZ08)", "sequence (Q9NZ08 whole entry)": "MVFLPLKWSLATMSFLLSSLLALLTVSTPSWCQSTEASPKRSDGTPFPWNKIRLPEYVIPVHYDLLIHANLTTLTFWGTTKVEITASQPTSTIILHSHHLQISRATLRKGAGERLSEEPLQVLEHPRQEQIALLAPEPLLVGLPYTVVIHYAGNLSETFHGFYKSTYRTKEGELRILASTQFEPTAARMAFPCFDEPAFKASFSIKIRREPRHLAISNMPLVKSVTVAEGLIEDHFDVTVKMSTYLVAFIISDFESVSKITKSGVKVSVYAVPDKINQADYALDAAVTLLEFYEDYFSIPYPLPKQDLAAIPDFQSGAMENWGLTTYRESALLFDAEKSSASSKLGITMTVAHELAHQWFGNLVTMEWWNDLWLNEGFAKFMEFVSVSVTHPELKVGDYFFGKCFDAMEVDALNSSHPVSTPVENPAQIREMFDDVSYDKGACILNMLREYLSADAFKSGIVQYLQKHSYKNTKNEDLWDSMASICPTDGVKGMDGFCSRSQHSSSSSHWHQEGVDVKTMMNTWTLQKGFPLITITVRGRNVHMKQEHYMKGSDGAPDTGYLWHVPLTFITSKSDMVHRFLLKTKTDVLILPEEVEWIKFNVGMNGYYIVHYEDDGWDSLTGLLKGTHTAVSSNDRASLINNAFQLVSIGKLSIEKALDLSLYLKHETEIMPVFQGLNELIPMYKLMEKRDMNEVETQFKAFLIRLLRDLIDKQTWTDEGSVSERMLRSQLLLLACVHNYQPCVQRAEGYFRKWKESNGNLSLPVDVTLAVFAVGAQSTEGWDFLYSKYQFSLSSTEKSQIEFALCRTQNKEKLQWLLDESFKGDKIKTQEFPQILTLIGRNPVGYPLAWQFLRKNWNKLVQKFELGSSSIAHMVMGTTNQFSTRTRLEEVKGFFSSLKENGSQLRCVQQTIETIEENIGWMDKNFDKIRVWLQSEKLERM", "assay": "inhibition of human ERAP1 enzyme activity – biochemical, cherry-pick, set 2, plate reader, dose response (AID 743314)"}, "[15]": {"assay": "viability loss in HepG2 hepatoma cells – cell-based, ATP luminescence, cherry-pick, activator set 2, cytotoxicity control, dose response (AID 1053143)", "type": "functional"}, "[16]": {"biological_target": "T1, Matrix metalloproteinase-14", "assay": "Dose Response confirmation of uHTS hits for a small molecule inhibitors of MT1-MMP activation in a fluorescence assay set 2.", "type": "functional"}, "Paired box protein Pax-8": {"biological_target": "Paired box protein Pax-8 (Homo sapiens, UniProt Q06710)", "sequence (Q06710 whole entry)": "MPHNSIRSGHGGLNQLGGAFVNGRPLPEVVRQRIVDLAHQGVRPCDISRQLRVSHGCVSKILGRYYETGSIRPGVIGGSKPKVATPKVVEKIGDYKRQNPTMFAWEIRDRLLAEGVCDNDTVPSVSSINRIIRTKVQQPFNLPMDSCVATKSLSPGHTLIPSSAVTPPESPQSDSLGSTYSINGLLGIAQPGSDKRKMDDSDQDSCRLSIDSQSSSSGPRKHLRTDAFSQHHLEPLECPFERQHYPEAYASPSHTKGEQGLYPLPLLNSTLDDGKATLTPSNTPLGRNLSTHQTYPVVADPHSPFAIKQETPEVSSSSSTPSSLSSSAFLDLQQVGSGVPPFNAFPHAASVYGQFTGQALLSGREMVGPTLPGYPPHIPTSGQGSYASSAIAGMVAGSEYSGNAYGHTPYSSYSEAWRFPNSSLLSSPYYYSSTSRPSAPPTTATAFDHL", "assay": "PAX8 transcriptional activity inhibition in RMG-I – RMG-I cells, luciferase, cherry-pick, dose response (AID 687027);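 further: luciferase reporter driven by Pax8 target thyroperoxidase promoter measured by SteadyGlo luminescence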", "type": "functional, cell-based"}, "Vero": {"tested_on": "Vero", "assay": "viability loss in Vero cells – cell-based, plate reader, cherry-pick samples, cytotoxicity control, dose response (AID 687020)", "type": "functional", "settings": "Chlorocebus sabaeus"}, "A549": {"tested_on": "A549", "assay": "viability loss in A549 cells – cell-based, plate reader, cherry-pick samples, cytotoxicity control, dose response (AID 687028)", "type": "functional", "settings": "Homo sapiens"}, "BHK-21": {"tested_on": "BHK-21", "assay": "viability loss in BHK-21 cells – cell-based, plate reader, cherry-pick samples, cytotoxicity control, dose response (AID 687030)", "type": "functional", "settings": "Mesocricetus auratus"}, "[17]": {"assay": "inhibitors of EBV LMP1 NF-kappaB signaling – cell-based, luciferase reporter, luminescence, dry powder, set 2, dose response (AID 624376)", "type": "functional"}, "[18]": {"assay": "LMP1-induced NF-kB luciferase signal inhibition – cell-based, EBV LMP1, dry powder, set 2, dose response (AID 624361)", "type": "functional"}, "[19]": {"assay": "TNFa-induced NF-kB reporter signal decrease – HEK293 LMP1 reporter cells, dry powder, set 2, selectivity assay for EBV LMP1 NF-kB inhibitor project, dose response (AID 624369)", "type": "functional"}, "[20]": {"assay": "OVCAR-3 cell viability loss – plate reader, dry powder samples, PAX8 inhibitor project, dose response (AID 743044)", "type": "functional, cell-based"}, "[21]": {"assay": "OVCAR8 cell viability loss – plate reader, dry powder samples, PAX8 project, dose response (AID 743197)", "type": "functional, cell-based", "settings": "OVCAR-8"}},
  "note": "The source made the active and inactive calls.",
  "data": [
    {"molecule": "Cc1cc(N(CCO)CCO)ccc1N=Nc1cc(F)ccc1F", "values": [
      {"measurement": "IC50", "setting": "Nonstructural protein 1", "value": "19.2 µM (active)"},
      {"measurement": "IC50", "setting": "[1]", "value": "31.6 µM (inactive)"}
    ]},
    {"molecule": "Cc1cccn2c(=O)c3cc(C(N)=S)c(=N)n(CCCOC(C)C)c3nc12", "values": [
      {"measurement": "AC50", "setting": "cells", "value": "0.626 µM (active)"}
    ]},
    {"molecule": "O=C(c1cc(COc2cccc3cnccc23)on1)N1CCCC(CCCO)C1", "note": "(stereo not drawn)", "values": [
      {"measurement": "IC50", "setting": "[2]", "value": "2.58 µM (active)"},
      {"measurement": "AC50", "setting": "[3]", "value": "1.14 µM (active)"},
      {"measurement": "AC50", "setting": "[4]", "value": "1.98 µM (active)"},
      {"measurement": "IC50", "setting": "Protein Wnt-3a", "value": "0.338 µM (active)"},
      {"measurement": "AC50", "setting": "[5]", "value": "0.519 µM (active)"},
      {"measurement": "AC50", "setting": "INS1", "value": "1.41 µM (active)"}
    ]},
    {"molecule": "CN1CCSc2ccc(C(=O)Nc3ccc(Cl)cc3)cc21", "values": [
      {"measurement": "EC50", "setting": "[6]", "value": "0.148 µM (active)"},
      {"measurement": "IC50", "setting": "[7]", "value": "8.59 µM (active)"},
      {"measurement": "IC50", "setting": "[8]", "value": "> 1.11 µM (active)"},
      {"measurement": "EC50", "setting": "[9]", "value": "0.366 µM (active)"},
      {"measurement": "EC50", "setting": "[10]", "value": "0.208 µM (active)"},
      {"measurement": "EC50", "setting": "[11]", "value": "0.321 µM (active)"},
      {"measurement": "IC50", "setting": "[12]", "value": "9.21 µM (active)"},
      {"measurement": "EC50", "setting": "H4", "value": "0.101 µM (active)"}
    ]},
    {"molecule": "CN1CCN(Cc2c(O)c(Cl)cc3c(-c4ccccc4)cc(=O)oc23)CC1", "values": [
      {"measurement": "EC50", "setting": "Kallikrein-7", "value": "68.3 µM (inactive)"},
      {"measurement": "EC50", "setting": "[13]", "value": "> 0.286 µM (active)"}
    ]},
    {"molecule": "CCc1c(C)c2cc(Cl)c(O)c(CN(C)C)c2oc1=O", "values": [
      {"measurement": "AC50", "setting": "[14]", "value": "5.35 µM (active)"}
    ]},
    {"molecule": "Cc1c(Cl)ccc2sc(NC(=O)c3ccco3)nc12", "values": [
      {"measurement": "AC50", "setting": "[15]", "value": "17.4 µM (active)"}
    ]},
    {"molecule": "CN(CCCC(=O)O)c1ccc(N=Nc2ccc([N+](=O)[O-])cc2)cc1", "values": [
      {"measurement": "IC50", "setting": "[16]", "value": "18.9 µM (active)"},
      {"measurement": "IC50", "setting": "Nonstructural protein 1", "value": "9.48 µM (active)"}
    ]},
    {"molecule": "CCCCCc1c(-c2ccccc2OC)ncn1CCc1ccccc1OC", "values": [
      {"measurement": "AC50", "setting": "Paired box protein Pax-8", "value": "24.9 µM (active)"},
      {"measurement": "AC50", "setting": "Vero", "value": "3.91 µM (active)"},
      {"measurement": "AC50", "setting": "A549", "value": "13.9 µM (active)"}
    ]},
    {"molecule": "COc1ccc2c3c([nH]c2c1)[C@H](CO)N(C(=O)Nc1cccc(F)c1)CC31CN(S(=O)(=O)c2ccccc2)C1", "values": [
      {"measurement": "AC50", "setting": "BHK-21", "value": "34.1 µM (active)"}
    ]},
    {"molecule": "CC(=O)N(C)C[C@@H]1Oc2cc(C#Cc3ccc(F)cc3)ccc2S(=O)(=O)N([C@H](C)CO)C[C@H]1C", "values": [
      {"measurement": "AbsAC35", "setting": "[17]", "value": 109.84, "unit": "µM"},
      {"measurement": "AbsAC35", "setting": "[18]", "value": 57.53, "unit": "µM"}
    ]},
    {"molecule": "COc1ccccc1C#Cc1ccc2c(c1)O[C@H](CN(C)Cc1cccnc1)[C@H](C)CN([C@@H](C)CO)S2(=O)=O", "values": [
      {"measurement": "AC50", "setting": "Paired box protein Pax-8", "value": "7.51 µM (active)"},
      {"measurement": "AbsAC35", "setting": "[19]", "value": 38.33, "unit": "µM"},
      {"measurement": "AC50", "setting": "[20]", "value": "21.4 µM (active)"},
      {"measurement": "AC50", "setting": "[21]", "value": "32.2 µM (active)"}
    ]}
  ]
}
